Data taken from patent US20220280594A1, “APPLICATION OF POLYPEPTIDE OR DERIVATIVE THEREOF” (CHENGDU HUITAI BIOMEDICINE CO., LTD., priority 2019, published 2022).
Ends that are not written are not given here. PEG = not defined here

Key:
[1] = test system: human non-small cell lung cancer cells (A549); test: scratch assay, migration of A549 cells; assay type: cell-based; details: A549, 10 μM, 48 hours; control group 75.31 ± 8.19
Summary of the method: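 Confluent A549 monolayers in 24-well plates were scratched, washed with PBS, then cultured 48 h in 2% FBS medium with peptide at 10 μM or PBS control, triplicate wells. Scratch width measured from images; migration rate (%) = (original − current width)/original width × 100.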

[2] = test system: human thyroid cancer cells (FRO); test: scratch assay, migration of FRO cells; assay type: cell-based; details: 10 μM, 48 hours, control group 60.34 ± 8.32
Summary of the method: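 FRO monolayers were scratched, washed, and cultured 48 h in 2% FBS medium with polypeptide derivatives at 10 μM or PBS control, three wells per group. Migration rate (%) = (original − current scratch width)/original width × 100, measured from images.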

[3] = test system: human pancreatic cancer cells (PANC-1); test: scratch assay, migration of PANC-1 cells; assay type: cell-based; details: PANC-1, 10 μM, 48 hours; control group 66.65 ± 3.37
Summary of the method: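 PANC-1 monolayers were scratched, then cultured for 48 h with 10 μM test compound in 2% FBS medium, in three parallel wells per group against a PBS control. Migration rate (%) was calculated as (original minus current scratch width) / original width × 100, from imaged wells.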

[4] = test system: human breast cancer cells (MDA-MB-231); test: scratch assay, migration of MDA-MB-231 cells; assay type: cell-based; details: MDA-MB-231, 10 μM, 48 hours; control group 36.19 ± 5.15
Summary of the method: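 MDA-MB-231 monolayers (1-2×10^5 cells/well) were scratched, then kept 48 h in medium with 2% FBS containing polypeptide at 10 μM, with a PBS control, in triplicate wells. Migration rate (%) was taken from scratch width: (original − current)/original ×100.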

[5] = test system: human colon cancer cells (HCT-116); test: scratch assay, migration of HCT-116 cells; assay type: cell-based; details: HCT-116, 10 μM, 48 hours; control group 47.78 ± 6.07
Summary of the method: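 Confluent HCT-116 monolayers were scratched, washed and cultured 48 h in 2% FBS medium with peptide at 10 μM versus PBS control, triplicate wells. Migration rate (%) = (original minus current scratch width)/original width × 100, from at least 3 images per well.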

[6] = test system: human pancreatic cancer cells (PANC-1); test: transwell invasion assay, PANC-1 cells; assay type: cell-based; details: PANC-1 transwell invasion, 10 μM, 24 hours; control group 727 ± 68
Summary of the method: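 Serum-free PANC-1 cells were seeded in matrigel-coated upper chambers with complete medium below. After 4-5 hours at 37° C., peptide was added at 10 μM final. Following 24 hours, invaded cells on the lower membrane surface were fixed, crystal violet-stained, imaged and counted against untreated controls.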

[7] = test system: human lung cancer cells (A549) subcutaneous xenograft; test: lung cancer subcutaneous xenograft animal model, intravenous injection; assay type: in vivo, mice (BALB/c-nu/nu); details: intravenous 60 mg/kg once every other day, 20 days; for Weight of tumor (g) (mean ± SD): control 2.53 ± 0.17; for Volume of tumor (mm^3) (mean ± SD): control 3373.26 ± 581.44
Summary of the method: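 Female BALB/c-nu/nu mice (4-6 weeks) inoculated subcutaneously with ~2×10^6 A549 cells; grouped once tumours exceeded 100 mm^3. Peptides given intravenously at 60 mg/kg for 20 days versus model control. Tumour weight and volume measured at dissection; body weight recorded every other day.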

[8] = test system: human lung cancer cells (95D); test: scratch assay, migration of 95D cells; assay type: cell-based; details: 10 μM, 48 hours, control group 55.3 ± 3.19
Summary of the method: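 Confluent 95D monolayers were scratched, washed with PBS and cultured 48 h in 2% FBS medium containing peptide (10 μM) or PBS control, in triplicate wells. Scratch width was measured on images; migration rate (%) = (original width − current width)/original width × 100.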

[9] = test system: human melanoma cells (A375); test: scratch assay, migration of A375 cells; assay type: cell-based; details: A375, 10 μM, 48 hours; control group 44.03 ± 6.21
Summary of the method: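 Monolayers scratched, washed with PBS and cultured 48 hours in 2% FBS medium with polypeptides N1-N54 at 10 μM or PBS control, three wells per group. Migration rate (%) = (original − current scratch width)/original width×100, from imaged scratch widths.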

Substance	Migration rate (%) (mean ± SD, P) [1]	Migration rate (%) (mean ± SD, P) [2]	Migration rate (%) (mean ± SD, P) [3]	Migration rate (%) (mean ± SD, P) [4]	Migration rate (%) (mean ± SD, P) [5]	Number of cells (mean ± SD, P), invaded cells [6]	Weight of tumor (g) (mean ± SD) [7]	Volume of tumor (mm^3) (mean ± SD) [7]	Migration rate (%) (mean ± SD, P) [8]	Migration rate (%) (mean ± SD, P) [9]
N35: SEQ ID NO: 1 with A15R, addition of one amino acid and PEG modification at the carboxyl terminal (YRVRFLAKENVTQDREDNC-{PEG}; reading uncertain)	32.27 ± 9.53,** %	8.04 ± 2.90,*** %	36.83 ± 5.92,** %	18.12 ± 5.23,* %	9.08 ± 2.64,*** %	358 ± 23,***	0.75 ± 0.24 g	1097.54 ± 216.63 mm^3	22.47 ± 5.12,*** %	19.51 ± 2.28,** %
N37: SEQ ID NO: 1 with addition of two amino acids to the carboxyl terminal and PEG modification at the amino terminal ({PEG}-YRVRFLAKENVTQDAEDNCT; reading uncertain)	49.45 ± 10.09,* %	36.47 ± 5.69,* %	18.23 ± 6.77,*** %	20.43 ± 3.23,* %	4.99 ± 1.68,*** %	359 ± 34,***	0.89 ± 0.39 g	915.97 ± 199.07 mm^3	27.76 ± 6.51,** %	14.48 ± 2.51,*** %
N38: SEQ ID NO: 1 with one amino acid added at each terminal and PEG modification at the carboxyl terminal (FYRVRFLAKENVTQDAEDNC-{PEG}; reading uncertain)	46.92 ± 4.49,** %	19.23 ± 7.52,** %	24.87 ± 5.81,*** %	18.99 ± 3.25,* %	5.97 ± 2.44,*** %	2.62 ± 21,****	0.71 ± 0.27 g	927.9 ± 205.31 mm^3	37.60 ± 3.67,** %	15.57 ± 3.65,*** %
N39: SEQ ID NO: 1 with addition of two amino acids and PEG modification at the carboxyl terminal (YRVRFLAKENVTQDAEDNTC-{PEG}; reading uncertain)	56.39 ± 6.30,* %	36.51 ± 4.36,* %	16.29 ± 8.00,*** %	19.08 ± 3.17,* %	4.29 ± 2.88,*** %	278 ± 16,****	0.98 ± 0.3 g	918.84 ± 288.77 mm^3	43.19 ± 4.82,* %	9.21 ± 3.20,*** %
N40: SEQ ID NO: 1 with deletion of positions 1-5 and 15-18, PEG at the amino terminal, two amino acids added at the carboxyl terminal ({PEG}-LAKENVTQDRC; reading uncertain)	20.15 ± 8.91,** %	39.96 ± 4.95,* %	13.24 ± 8.56,*** %	21.12 ± 4.15,* %	2.19 ± 1.45,*** %	273 ± 21,****	0.98 ± 0.36 g	997.42 ± 267.79 mm^3	36.23 ± 5.05,** %	6.47 ± 1.39,*** %
N41: SEQ ID NO: 1 with addition of two amino acids at the amino terminal, deletion of position 18, PEG at the carboxyl terminal (FRYRVRFLAKENVTQDAED-{PEG}; reading uncertain)	56.03 ± 3.75,* %	40.10 ± 2.73,* %	14.44 ± 7.40,*** %	14.75 ± 4.28,** %	5.78 ± 2.76,*** %	288 ± 38,****	0.84 ± 0.34 g	1075.33 ± 350.78 mm^3	32.62 ± 3.79,** %	10.01 ± 2.07,*** %
N42: SEQ ID NO: 1 with deletion of positions 1-5 and 15-18, PEG at the amino terminal, one amino acid added at the carboxyl terminal ({PEG}-LAKENVTQDR; reading uncertain)	60.74 ± 3.40,* %	25.71 ± 2.79,** %	24.26 ± 7.91,** %	17.91 ± 3.66,** %	6.75 ± 2.33,*** %	399 ± 21,***	0.83 ± 0.31 g	1149.73 ± 346.36 mm^3	35.42 ± 4.97,** %	8.92 ± 2.25,*** %
N43: SEQ ID NO: 1 with addition of one amino acid at the amino terminal, deletion of position 18, PEG at the carboxyl terminal (RYRVRFLAKENVTQDAED-{PEG}; reading uncertain)	57.74 ± 5.39,* %	19.78 ± 4.60,** %	18.87 ± 6.90,*** %	12.19 ± 5.70,** %	4.56 ± 1.52,*** %	251 ± 10,****	0.85 ± 0.14 g	1218.7 ± 190.78 mm^3	30.38 ± 4.71,** %	11.22 ± 1.74,*** %
N45: SEQ ID NO: 1 with V11R, deletion of positions 1-5 and 15-18, PEG modification at the carboxyl terminal (LAKENRTQD-{PEG}; reading uncertain)	56.03 ± 4.21,* %	24.22 ± 6.27,** %	45.16 ± 5.74,** %	13.02 ± 4.54,** %	28.34 ± 2.87,** %	358 ± 23,***	0.97 ± 0.28 g	1204.87 ± 212.94 mm^3	33.76 ± 5.38,** %	18.79 ± 2.28,** %
N47: SEQ ID NO: 1 with N18R, deletion of positions 1-2, one amino acid added and PEG at the carboxyl terminal (VRFLAKENVTQDAEDRC-{PEG}; reading uncertain)	54.66 ± 4.73,* %	16.47 ± 3.83,** %	36.05 ± 5.62,** %	21.82 ± 4.11,* %	18.92 ± 2.11,** %	133 ± 29,****	0.75 ± 0.39 g	1748.82 ± 508.08 mm^3	23.86 ± 3.61,*** %	8.82 ± 2.49,*** %
